Laboratory results reported in patent US10175256B2, “Compositions and methods utilizing lysophosphatidylcholine scaffolds” (National University Of Singapore, priority 2013, dated 2019).
“And” between values parts separate entries of the source, which are not always exact repeats. Identical values can stand only once.

Tests used:
mouse Mfsd2a [1] = molecular target: T1, mouse Mfsd2a (Mus musculus, UniProt Q9DA75); experiment: Cell-based free fatty acid transport/uptake in Mfsd2a expressing HEK293 cells (mass spectrometry, TLC; Table 1); settings: replicate columns; for Amount of each lipid species, mol percent in total phospholipid analysed: Mfsd2a expressing HEK293 cells incubated with 100 uM Arachidonic fatty acid/BSA complex overnight; for Amount of lipid species, mol percent in total phospholipid analysed / Amount of each lipid species normalized to internal standard, mol percent in total phospholipid analysed: Mfsd2a expressing HEK293 cells
T1 construct: expressed in transfected cells; host or cells: HEK293
T1 sequence (Q9DA75 1-534): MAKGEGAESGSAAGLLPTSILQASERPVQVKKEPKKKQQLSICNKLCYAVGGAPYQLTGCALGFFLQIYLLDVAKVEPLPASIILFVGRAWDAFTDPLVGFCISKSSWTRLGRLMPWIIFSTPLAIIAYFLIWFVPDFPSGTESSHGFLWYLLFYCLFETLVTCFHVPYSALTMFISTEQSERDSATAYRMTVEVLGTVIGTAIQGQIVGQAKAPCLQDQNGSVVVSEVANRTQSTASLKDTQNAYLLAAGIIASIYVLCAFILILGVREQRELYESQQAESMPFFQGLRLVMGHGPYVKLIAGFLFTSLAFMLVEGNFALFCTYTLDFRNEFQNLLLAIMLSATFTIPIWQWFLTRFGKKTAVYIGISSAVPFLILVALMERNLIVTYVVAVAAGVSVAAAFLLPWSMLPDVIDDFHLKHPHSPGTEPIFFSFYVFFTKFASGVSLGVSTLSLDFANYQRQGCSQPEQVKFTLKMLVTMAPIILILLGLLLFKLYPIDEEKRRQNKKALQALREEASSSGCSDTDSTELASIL
Method: (§1) FIG. 12. […] Std: free [^14C]-DHA. b. TLC analysis of phospholipids and neutral lipids of HEK293 cells transfected with mouse Mfsd2a and mutants after overnight incubation with 100 μM [^14C]-oleate. TLC protocol used was described in Methods. PC: phosphatidylcholine, PE: phosphatidylethanolamine, TAG: triglyceride, CE: cholesteryl ester.
(§2) For tissue lipid analysis, brain, liver, and heart of female WT and KO mice with age of 7-8 weeks born to HET mothers, and brains from e18.5 embryos were collected and immediately frozen with liquid nitrogen until extraction. Lipid extraction was followed by chloroform/methanol method. For cell-based free fatty acid transport, lipids from HEK293 cells expressing mouse Mfsd2a and mock controls after overnight treatment with 100 μM docosahexaenoic, arachidonic, eicosapentaenoic, alpha-linolenic, linoleic, oleic, palmitic acids in BSA complex were extracted using HIP buffer (hexane:iso-propanol 3:2, per volume) and dried under N2 gas. Phospholipid species were measured by high performance liquid chromatography (HPLC) 1100 system (Agilent) coupled with an Triple Quadrupole/Ion Trap mass spectrometer (4000Qtrap, Applied Biosystem). Levels of individual phospholipid species were analyzed as described previously and quantified using spiked internal standards that includes PC-14:0/14:0, PE-14:0/14:0, PS-14:0/14:0 (Avanti Polar Lipids, Alabaster, Ala., USA), and dioctanoyl PI (Echelon Biosciences, Inc., Salt Lake City, Utah, USA).

mouse Mfsd2a [2] = experiment: as above; settings: MS, replicate columns; for Amount of each lipid species, mol percent in total phospholipid analysed: mock HEK293 cells incubated with 100 uM Arachidonic fatty acid/BSA complex overnight; for Amount of each lipid species normalized to internal standard, mol percent in total phospholipid analysed / Amount of lipid species, mol percent in total phospholipid analysed: mock HEK293 cells; for Amount of lipid species, mol percent in total phospholipid analysed: 100 uM Oleic fatty acid/BSA complex overnight
Method: as §1, §2

[3] = 100 uM Alpha-linolenic fatty acid/BSA complex overnight
[4] = 100 uM Linoleic fatty acid/BSA complex overnight
[5] = 100 uM Docosahexaenoic acid/BSA complex overnight, MS
[6] = 100 uM Eicosapentaenoic acid/BSA complex overnight, MS
[7] = 100 uM Oleic fatty acid/BSA complex overnight, MS
[8] = 100 uM Docosahexaenoic acid/BSA complex overnight
[9] = 100 uM Eicosapentaenoic acid/BSA complex overnight

| Structure (SMILES) | Amount of each lipid species, mol percent in total phospholipid analysed (mouse Mfsd2a [1]; MS) | Amount of lipid species, mol percent in total phospholipid analysed (mouse Mfsd2a [1]; [3]) | Amount of lipid species, mol percent in total phospholipid analysed (mouse Mfsd2a [1]; [4]) | Amount of each lipid species normalized to internal standard, mol percent in total phospholipid analysed (mouse Mfsd2a [1]; [5]) | Amount of each lipid species normalized to internal standard, mol percent in total phospholipid analysed (mouse Mfsd2a [1]; [6]) | Amount of lipid species, mol percent in total phospholipid analysed (mouse Mfsd2a [1]; [7]) | Amount of each lipid species, mol percent in total phospholipid analysed (mouse Mfsd2a [2]) | Amount of each lipid species normalized to internal standard, mol percent in total phospholipid analysed (mouse Mfsd2a [2]; [8]) | Amount of each lipid species normalized to internal standard, mol percent in total phospholipid analysed (mouse Mfsd2a [2]; [9]) | Amount of lipid species, mol percent in total phospholipid analysed (mouse Mfsd2a [2]) |
| --- | --- | --- | --- | --- | --- | --- | --- | --- | --- | --- |
| CCCCCCCCCCCCCCCC(=O)OC[C@@H](O)COP(=O)([O-])OCC[N+](C)(C)C [LysoPC16:0] | 0.02415 mol percent and 0.0241 mol percent and 0.02855 mol percent and 0.02172 mol percent | 0.02586 mol percent and 0.02533 mol percent and 0.02841 mol percent and 0.02293 mol percent | 0.02176 mol percent and 0.01959 mol percent and 0.02134 mol percent and 0.02259 mol percent | 0.03726 mol percent and 0.03481 mol percent and 0.03081 mol percent and 0.02684 mol percent | 0.02694 mol percent and 0.02534 mol percent and 0.02456 mol percent and 0.02331 mol percent | 0.01777 mol percent and 0.01495 mol percent and 0.01595 mol percent and 0.01964 mol percent | 0.02322 mol percent and 0.02517 mol percent and 0.02807 mol percent | 0.03115 mol percent and 0.02846 mol percent and 0.03055 mol percent | 0.02508 mol percent and 0.02349 mol percent and 0.02482 mol percent | 0.01539 mol percent and 0.01577 mol percent and 0.0163 mol percent |
| CCCCCCCCCCCCCCCCOC[C@@H](O)COP(=O)([O-])OCC[N+](C)(C)C [LysoPC16:0e] | 0.008218 mol percent and 0.00827 mol percent and 0.009441 mol percent and 0.01026 mol percent | 0.004349 mol percent and 0.003802 mol percent and 0.005532 mol percent and 0.004823 mol percent | 0.004905 mol percent and 0.004227 mol percent and 0.005291 mol percent and 0.006453 mol percent | 0.005111 mol percent and 0.004575 mol percent and 0.004499 mol percent and 0.004664 mol percent | 0.005369 mol percent and 0.005332 mol percent and 0.003584 mol percent and 0.004376 mol percent | 0.002972 mol percent and 0.00261 mol percent and 0.002228 mol percent and 0.001403 mol percent | 0.008219 mol percent and 0.01198 mol percent and 0.009457 mol percent | 0.005025 mol percent and 0.003881 mol percent and 0.00548 mol percent | 0.00417 mol percent and 0.00451 mol percent and 0.003651 mol percent | 0.003153 mol percent and 0.001998 mol percent and 0.003294 mol percent |
| CCCCCCCCCCCCCCCCCC(=O)OC[C@@H](O)COP(=O)([O-])OCC[N+](C)(C)C [LysoPC18:0] | 0.006865 mol percent and 0.00639 mol percent and 0.005642 mol percent and 0.008281 mol percent | 0.008875 mol percent and 0.009786 mol percent and 0.00943 mol percent and 0.009646 mol percent | 0.006967 mol percent and 0.006454 mol percent and 0.007395 mol percent and 0.006903 mol percent | 0.009464 mol percent and 0.008616 mol percent and 0.009301 mol percent and 0.008257 mol percent | 0.006896 mol percent and 0.007974 mol percent and 0.005812 mol percent and 0.007684 mol percent | 0.005262 mol percent and 0.005101 mol percent and 0.005659 mol percent and 0.004823 mol percent | 0.006849 mol percent and 0.006628 mol percent and 0.006426 mol percent | 0.008486 mol percent and 0.008947 mol percent and 0.009444 mol percent | 0.006911 mol percent and 0.007615 mol percent and 0.006374 mol percent | 0.005105 mol percent and 0.004638 mol percent and 0.005658 mol percent |
| CCCCCCCCCCCCCCCCCCOC[C@@H](O)COP(=O)([O-])OCC[N+](C)(C)C [LysoPC18:0e] | 0.001403 mol percent and 0.001832 mol percent and 0.001957 mol percent and 0.00156 mol percent | 0.001528 mol percent and 0.001007 mol percent and 0.001383 mol percent and 0.001468 mol percent | 0.00128 mol percent and 0.001885 mol percent and 0.001443 mol percent and 0.001726 mol percent | 0.002316 mol percent and 0.001944 mol percent and 0.002079 mol percent and 0.002217 mol percent | 0.002414 mol percent and 0.001699 mol percent and 0.001986 mol percent and 0.001832 mol percent | 0.002105 mol percent and 0.002254 mol percent and 0.001084 mol percent and 0.001841 mol percent | 0.00137 mol percent and 0.002231 mol percent and 0.001637 mol percent | 0.002177 mol percent and 0.002156 mol percent and 0.002215 mol percent | 0.001609 mol percent and 0.002109 mol percent and 0.001671 mol percent | 0.001802 mol percent and 0.00157 mol percent and 0.001773 mol percent |
| CCCCCCCCCCCCCCCC(=O)OC[C@@H](O)COP(=O)(O)OCCN [LysoPE16:0] | 0.1468 mol percent and 0.08379 mol percent and 0.1077 mol percent and 0.1337 mol percent | 0.1381 mol percent and 0.2428 mol percent and 0.2355 mol percent and 0.07619 mol percent | 0.03967 mol percent and 0.1018 mol percent and 0.06313 mol percent and 0.02483 mol percent | 0.08329 mol percent and 0.03847 mol percent and 0.07102 mol percent and 0.05717 mol percent | 0.09357 mol percent and 0.09693 mol percent and 0.09655 mol percent and 0.07626 mol percent | 0.04601 mol percent and 0.01705 mol percent and 0.1151 mol percent and 0.08973 mol percent | 0.08991 mol percent and 0.08319 mol percent and 0.0827 mol percent | 0.06318 mol percent and 0.083 mol percent and 0.06994 mol percent | 0.06426 mol percent and 0.1796 mol percent and 0.1079 mol percent | 0.056 mol percent and 0.03411 mol percent and 0.06706 mol percent |
| CCCCCCCCCCCCCC/C=C\OC[C@@H](O)COP(=O)(O)OCCN [LysoPE16:0p] | 2.79 mol percent and 2.681 mol percent and 2.307 mol percent and 2.64 mol percent |  |  |  |  |  | 3.439 mol percent and 2.895 mol percent and 2.928 mol percent |  |  |  |
